Source: the NIST ThermoML archive (doi:10.1016/j.jct.2019.03.018)
Numbers after ± are expanded uncertainties.

Conditions: Liquid; Ebulliometric method (Recirculating still)
`CCOCC(C)O` (centres undefined) [1-ethoxy-2-propanol] showed a Normal boiling temperature of 131.89 ± 0.7 °C.
`CC(C)OC(C)C` [diisopropyl ether] showed a Normal boiling temperature of 68.57 ± 0.7 °C.
With `CCCO` [propan-1-ol] the Normal boiling temperature was 96.8 ± 0.7 °C.
`CC(C)O` [propan-2-ol] showed a Normal boiling temperature of 82.18 ± 0.7 °C.
